# Data from patent publication US20080139596A1, “Modulators of Hcv Replication” (priority 2004, published 2008).
# Key:
# wild type Con1 replicon = assay: Beta-lactamase gene reporter assay (BLA-assay), replicon electroporated in 10A-IFN cells; format: cell-based, Hepatitis C virus; settings: 8 μM, added two hours after electroporation, 4 days of incubation
# Experimental: The BLA-assay was performed after 4 days of incubation in the presence of the compounds to be tested according to Murray et al., J Virol 77, 2928-35, 2003. Briefly, medium was removed, and cells were stained for 90 min with CCF4-AM (Aurora Biosciences Corp.) in Dulbecco's modified Eagle's medium supplemented with 25 mM HEPES, pH 8.0. For quantitation of the fraction of cells harboring bla replicons, cells were photographed by using a digital charge-coupled device color camera and green and blue cells were counted. Another method for measuring beta-lactamase activity is using a fluorescence plate reader that quantitates the amount of green (530 nm) or blue (460 nm) fluorescence emitted by cells stimulated with light of 405 nm.
# A subgenomic replicon was used in which the original neomycin phosphotransferase (neo) gene was replaced by the β-lactamase (bla) gene (WO2003089672 A1 and Murray et al., J Virol 77, 2928-2935, 2003). Cells actively replicating HCV express β-lactamase and show a fluorescent blue staining after incubation with a diffusible β-lactamase substrate (BLA-assay). Replicon RNA was electroporated in 10A-IFN cells and compounds were added at a concentration of 8 μM two hours after electroporation. The BLA-assay was performed after 4 days of incubation in the presence of the compounds to be tested according to Murray et al., J Virol 77, 2928-35, 2003. Briefly, medium was removed, and cells were stained for 90 min with CCF4-AM (Aurora Biosciences Corp.) in Dulbecco's modified Eagle's medium supplemented with 25 mM HEPES, pH 8.0. For quantitation of the fraction of cells harboring bla replicons, cells were photographed by using a digital charge-coupled device color camera and green and blue fluorescent cells were counted. Alternatively, fluorescence was measured by using a CytoFluor 4000 fluorescence plate reader.
# The control compound SB203580 had no effect on HCV replication.
# [1] = test system: Con1 replicon carrying the adaptive mutation A2199T (AT); format: cell-based, Hepatitis C virus; settings: AT replicon (high amounts of hyperphosphorylated NS5A); 10A-IFN cells; 4 days; Cell-ELISA; read-out: IC50, inhibition of HCV replication
# [2] = test system: replicon m17 (E1202G in NS3); format: cell-based; settings: 8 μM; 4 days of incubation; replicon m17 in 10A-IFN cells
# [3] = test system: Con1 replicon carrying the adaptive mutation S2204I (SI); format: cell-based, Hepatitis C virus; settings: SI replicon (low amounts of hyperphosphorylated NS5A); 10A-IFN cells; 4 days; Cell-ELISA; read-out: IC50, inhibition of HCV replication
# [4] = test system: subgenomic replicons with the synergistic mutation in NS3 (m17); assay: HCV-specific RNA by real-time reverse transcription PCR (TaqMan) in 10A-IFN cells; format: cell-based, Hepatitis C virus; settings: 8 μM; 4 days; m17 replicon in 10A-IFN cells; quantitative PCR
# Experimental: (§1) RNA was transcribed from the plasmids wt, wt-GAA, m17, SA, m17/SA and m17-GAA and electroporated into 10A-IFN cells. Cells were incubated for four days without or with 8 μM of Compound (1), Compound (2) or SB203580.
# (§2) (A) HCV-specific RNA analysis using quantitative RT-PCR. Total cellular RNA was extracted and HCV-specific RNA was quantified as described in Materials and Methods. On the Y-axis is shown the fold-induction with respect to the DMSO control (black bar), Compound (1) (dark grey bar), Compound (2) (light grey bar) or SB203580 (dotted bar). Replicon RNA is indicated at the bottom of the figure.
# (§3) Replicon RNA was extracted from selected clones either using the Qiagen RNAeasy minikit following manufacturer instructions or as described by Chomczynski et al., 1987. Anal. Biochem. 162, 156-159. TaqMan analysis was typically performed using 10 ng of RNA in a reaction mix (TaqMan Gold RT-PCR kit, Perkin Elmer Biosystems) either with HCV specific oligos/probe (as disclosed in published International application WO02/059321) or with human beta-actin specific oligos/probe (Pre-Developed TaqMan Assay Reagents, Endogenous Control Human beta-actin, Part Number 4310881E, Applied Biosystems). PCR was performed using a Perkin Elmer ABI PRISM 7700 under the following conditions: 30 minutes at 48° C. (the RT step), 10 minutes at 95° C. and 40 cycles: 15 seconds at 95° C. and 1 minute at 60° C. Quantitative calculations were obtained using the Comparative CT Method (described in User Bulletin #2, ABI PRISM 7700 Sequence Detection System, Applied Biosystem, December 1997) considering the level of GAPDH mRNA constant. All calculations of HCV RNA are expressed as fold difference over a specific control.
# (§4) A similar experiment was carried out in order to detect HCV-specific RNA using real-time reverse transcription PCR amplification (FIG. 2A). […] Compound (1) induced replication of wt Con1 replicon 6-fold as measured by quantitative PCR, whereas induction of replication by the other compounds was below background (wt). […]
# wt Con1 replicon [5] = assay: as above; format: cell-based, Hepatitis C virus; settings: 8 μM; 4 days; wt Con1 replicon in 10A-IFN cells; quantitative PCR
# Experimental: as §1, §2, §3, §4
# [6] = test system: hyperphosphorylated NS5A (p58) in HB68 cells; assay: NS5A hyperphosphorylation assay (radiolabelling, immunoprecipitation, SDS-PAGE); format: cell-based, Hepatitis C virus; settings: 5 μM; for formation of the hyperphosphorylated form of NS5A (p58) / NS5A phosphorylation: 35S-methionine or 32P-orthophosphate labelling
# Experimental: The presence of hyperphosphorylated NS5A (p58) was evaluated in Huh7-HB68 cells. Proteins were labeled either with ^35S-methionine (lanes 2-5) or with ^32P-orthophosphate (lanes 7-10) in the presence of DMSO (lanes 2 and 7) or with 5 μM of Compound (1) (lanes 3 and 8), Compound (2) (lanes 4 and 9) or SB203580 (lanes 5 and 10). After the radiolabelling, protein extract was prepared, NS5A was immunoprecipitated and proteins were loaded on a 7.5% SDS-PAGE and autoradiographed. The sizes of molecular weight marker proteins are indicated in lanes 1 and 6.
# Inhibition of NS5A hyperphosphorylation in intact cells was measured by determining the amount of hyperphosphorylated NS5A (p58) in cells expressing HCV NS5A in the context of a polyprotein comprising at least NS3, NS4A, NS4B, and NS5A (Neddermann et al., J Virol 73, 9984-9991, 1999). […] HBI10 and HB68 are Huh-7 derived-cell lines described in WO2002/059321.
# Hyperphosphorylated NS5A was detected as a protein that i) migrates with an apparent molecular weight of about 58 kDa in SDS PAGE, and ii) is immunoreactive with anti-NS5A antibodies. Thus, the amount of hyperphosphorylated NS5A was detected by immunoprecipitation of radioactively labeled proteins.
# HBI10 or HB68 were cultured in Dulbecco's modified Eagle medium (DMEM) supplemented with 10% fetal bovine serum (FBS) in the presence of 0.8 mg/ml of G418 (Geneticin; Gibco/BRL). For starvation prior to radioactive protein labeling, minimal essential medium without methionine (Gibco/BRL) was used. For protein labeling, 100 μCi/ml of ^35S-labelled methionine (Promix, Amersham, Cat. No. SJQ0079, 1000 Ci/mmole) was added to the cells.
# • 1. HBI10 or HB68 cells were grown to 80% confluency in 6-well plates. • 2. Compound to be tested, dissolved in DMSO at 100× concentration, was added to each well. • 3. One hour later, the medium was removed and replaced with Minimal Essential Medium without methionine. This step is omitted in the case of 32P-orthophosphate labeling. • 4. Compound to be tested, dissolved in DMSO at 100× concentration, was freshly added to each well. • 5. One hour later 100 μCi of ^35S-labelled methionine per ml of Minimal Essential Medium without methionine was added to each well for 35S-metabolic labeling together with the compound to be tested, dissolved in DMSO at 100× concentration. In the case of 32P-labelling, cells were washed once with Dulbecco's modified Eagle's medium without phosphate (ICN) and labeled for 4 hours in the same medium containing 500 μCi/ml of [32P]-orthophosphate (285.5 Ci/mg, NEN) together with the compound to be tested, dissolved in DMSO at 100× concentration. • 6. After 4 hours, cells were harvested from each well and individual cell extracts were prepared in 100 μl of cell lysis buffer. • 7. […]
# wt Con1 replicon [7] = format: cell-based; settings: 8 μM; 4 days of incubation; wt Con1 replicon in 10A-IFN cells
structure (smiles),measurement,setting,value
"CNc1nccc(-c2[nH]c(C3CCNCC3)nc2-c2cccc(C(F)(F)F)c2)n1 [Compound (1), N-methyl-4-{2-piperidin-4-yl-4-[3-(trifluoromethyl)phenyl]-1H-imidazol-5-yl}pyrimid-2-amine]","HCV replication (fluorescent blue cells, BLA-assay)",wild type Con1 replicon,resulted in the production of fluorescent blue cells
same,IC50,[1],5 µM
same,activation of replication (NS5A by immunoblot),[2],more potent
same,IC50,[3],500 nM
same,fold-induction of HCV-RNA with respect to the DMSO control,[4],312 fold
same,fold-induction of HCV-RNA with respect to the DMSO control,wt Con1 replicon [5],6 fold
same,formation of the hyperphosphorylated form of NS5A (p58) / NS5A phosphorylation,[6],inhibited the formation of the hyperphosphorylated form of NS5A
same,presence of NS5A by immunoblot,wt Con1 replicon [7],NS5A could be detected
"CN1CCC(c2nc(-c3ccncc3)c(-c3ccc(F)cc3)[nH]2)CC1 [Compound (2), 4-[5-(4-fluorophenyl)-2-(1-methylpiperidin-4-yl)-1H-imidazol-4-yl]pyridine]","HCV replication (fluorescent blue cells, BLA-assay)",wild type Con1 replicon,resulted in the production of fluorescent blue cells
same,IC50,[1],5 µM
same,activation of replication (NS5A by immunoblot),[2],less potent activator
same,IC50,[3],500 nM
same,fold-induction of HCV-RNA with respect to the DMSO control,[4],58 fold
same,formation of the hyperphosphorylated form of NS5A (p58) / NS5A phosphorylation,[6],inhibited the formation of the hyperphosphorylated form of NS5A
same,presence of NS5A by immunoblot,wt Con1 replicon [7],no protein was visible
"C[S+]([O-])c1ccc(-c2nc(-c3ccncc3)c(-c3ccc(F)cc3)[nH]2)cc1 (stereo not shown) [SB203580, reference compound]","HCV replication (fluorescent blue cells, BLA-assay)",wild type Con1 replicon,no effect
same,NS5A expression,[6],no effect
same,formation of the hyperphosphorylated form of NS5A (p58) / NS5A phosphorylation,[6],no effect
same,presence of NS5A by immunoblot,wt Con1 replicon [7],no NS5A was visible
